Laboratory results reported in paper PMC10272112 (Nature Communications, 2023).

How the values were obtained:
Test in all cases: Chemoproteomic competition pulldown assay (co-competed CoREST partner)
Format in all cases: binding
HMG20A = system: HMG20A
Experimental: (§1) To identify proteins directly bound by lipoic acid, we employed a chemoproteomic competition assay. Briefly, (R/S)-LA was immobilized on sepharose beads via an amidation reaction to form an affinity matrix (abbreviated as iL; Fig. 1a). This affinity matrix can be incubated with cell lysate to pull down potential LA or LM target proteins and identify these targets via bottom-up proteomics. In a competition assay, free LA or LM were incubated with lysate at different concentrations before pulling down and quantifying target proteins. […] (Fig. 1b, see “Methods” for details). […] The lysate buffer used in this assay contains 1 mM DTT to mimic the intracellular reductive milieu and to reduce lipoic acid and LM. […] Additional competition assays performed in lung adenocarcinoma cell A549 lysate also identified HDAC1, HDAC2, and HDAC6 as targets (Supplementary Fig. 1b). Amongst the three cell lines tested, HDACs were the only confidently identified targets across the 1500–3000 proteins quantified in these assays. […] We validated the results by analogous pulldown competition assays using two other affinity matrices prepared via the immobilization of either the HDAC inhibitor Quisinostat (iQ) and an analog of the class IIa HDAC inhibitor Bürli’s 31[14] (iC)[12]. We have previously shown that these affinity matrices specifically bind to the active sites of HDACs and have used them for HDACi selectivity profiling. Indeed, binding of (R/S)-LA and (R/S)-LM to HDAC1, HDAC2, HDAC3, HDAC6, and, to a lesser extent, HDAC8 was confirmed in these assays (Supplementary Fig. 1c, d). No binding to class IIa HDACs or the recently discovered common HDAC inhibitor off-target MBLAC2 was observed (Supplementary Fig. 1e)[12]. […] This observation might reflect electrostatic repulsion between the HDAC10 active site gate-keeper glutamic acid residues[15],[16] and the terminal carboxylic acid of LA.
(§2) To assess the degree of protein depletion from lysates by the affinity matrix, a second pulldown (PDPD) with fresh beads was performed using the unbound protein fraction from the vehicle control flow through. The beads were washed (1 × 1 mL of lysis buffer without inhibitors and only 0.4% Igepal, 2 × 2 mL of lysis buffer without inhibitors and only 0.2% Igepal), and captured proteins were denatured with 8 M urea buffer, alkylated with 55 mM chloroacetamide and digested with Trypsin according to standard procedures. The resulting peptides were desalted on a C18 filter plate (Sep-Pak® tC18 µElution Plate, Waters), vacuum dried, and stored at −20 °C until LC–MSMS measurement.
(§3) For the competition assays, relative binding was calculated based on the protein intensity ratio to the DMSO control for every single inhibitor concentration. EC50 values were derived from a four-parameter log-logistic regression with variable slope (constrain: bottom > 0). The obtained EC50 values were multiplied with a protein-dependent correction factor (cf), resulting in the apparent Kd value (Kd^app). The correction factor is determined by calculating the ratio of the protein intensity of two consecutive pulldowns of the vehicle control sample[13]. Targets of the inhibitors were annotated manually according to published procedures[12],[46],[47]. […] Additionally, the number of unique peptides and MSMS counts per condition were taken into account. Positive target binding across several independent experiments performed with different cell lysates further substantiated our confidence for a true positive drug-target binding event.

KDM1A = system: KDM1A
Experimental: as §1, §2, §3

HMG20B = system: HMG20B
Experimental: as §1, §2, §3

GSE1 = system: GSE1
Experimental: as §1, §2, §3

[1] = iL, A549 lysate, log10 M -4.52288
[2] = iL, A549 lysate, log10 M -5.52288
[3] = iL, A549 lysate, log10 M -6.52288
[4] = iL, A549 lysate, log10 M -7.52288
[5] = iL, A549 lysate, log10 M -8.52288
[6] = iQ, SW620 lysate, log10 M -3.52288
[7] = iQ, SW620 lysate, log10 M -4.52288
[8] = iQ, SW620 lysate, log10 M -5.52288
[9] = iQ, SW620 lysate, log10 M -6.52288
[10] = iL, SW620 lysate, log10 M -3.52288
[11] = iL, SW620 lysate, log10 M -4.52288
[12] = iL, SW620 lysate, log10 M -5.52288
[13] = iL, SW620 lysate, log10 M -6.52288

## O=C(O)CCCCC1CCSS1 (racemic) [(R/S)-LA, (R/S)-lipoic acid]
HMG20A; iL, A549 lysate, log10 M -4
  relative binding vs DMSO: 0
HMG20A; [1]
  relative binding vs DMSO: 0
HMG20A; iL, A549 lysate, log10 M -5
  relative binding vs DMSO: 0
HMG20A; [2]
  relative binding vs DMSO: 0.4211
HMG20A; iL, A549 lysate, log10 M -6
  relative binding vs DMSO: 0.8299
HMG20A; [3]
  relative binding vs DMSO: 0.9993
HMG20A; [4]
  relative binding vs DMSO: 1.185
HMG20A; iL, A549 lysate, log10 M -8
  relative binding vs DMSO: 1.321
HMG20A; [5]
  relative binding vs DMSO: 1.259
HMG20A; [6]
  relative binding vs DMSO: 0.2638
HMG20A; iQ, SW620 lysate, log10 M -4
  relative binding vs DMSO: 0.07541
HMG20A; [7]
  relative binding vs DMSO: 0.5511
HMG20A; iQ, SW620 lysate, log10 M -5
  relative binding vs DMSO: 0.4652
HMG20A; [8]
  relative binding vs DMSO: 0.8795
HMG20A; iQ, SW620 lysate, log10 M -6
  relative binding vs DMSO: 0.793
HMG20A; [9]
  relative binding vs DMSO: 1.133
HMG20A; iQ, SW620 lysate, log10 M -7
  relative binding vs DMSO: 0.8444
KDM1A; iL, A549 lysate, log10 M -4
  relative binding vs DMSO: 0.08234
KDM1A; [1]
  relative binding vs DMSO: 0.1175
KDM1A; iL, A549 lysate, log10 M -5
  relative binding vs DMSO: 0.1963
KDM1A; [2]
  relative binding vs DMSO: 0.3595
KDM1A; iL, A549 lysate, log10 M -6
  relative binding vs DMSO: 0.6514
KDM1A; [3]
  relative binding vs DMSO: 1.056
KDM1A; [4]
  relative binding vs DMSO: 0.9439
KDM1A; iL, A549 lysate, log10 M -8
  relative binding vs DMSO: 1.171
KDM1A; [5]
  relative binding vs DMSO: 1.264
KDM1A; [10]
  relative binding vs DMSO: 0
KDM1A; iL, SW620 lysate, log10 M -4
  relative binding vs DMSO: 0
KDM1A; [11]
  relative binding vs DMSO: 0
KDM1A; iL, SW620 lysate, log10 M -5
  relative binding vs DMSO: 0.08571
KDM1A; [12]
  relative binding vs DMSO: 0.9092
KDM1A; iL, SW620 lysate, log10 M -6
  relative binding vs DMSO: 1.31
KDM1A; [13]
  relative binding vs DMSO: 1.608
KDM1A; iL, SW620 lysate, log10 M -7
  relative binding vs DMSO: 1.68
KDM1A; [6]
  relative binding vs DMSO: 0.1418
KDM1A; iQ, SW620 lysate, log10 M -4
  relative binding vs DMSO: 0.1346
KDM1A; [7]
  relative binding vs DMSO: 0.3513
KDM1A; iQ, SW620 lysate, log10 M -5
  relative binding vs DMSO: 0.5517
KDM1A; [8]
  relative binding vs DMSO: 0.6829
KDM1A; iQ, SW620 lysate, log10 M -6
  relative binding vs DMSO: 0.6182
KDM1A; [9]
  relative binding vs DMSO: 0.6303
KDM1A; iQ, SW620 lysate, log10 M -7
  relative binding vs DMSO: 0.7048
HMG20B; iL, A549 lysate, log10 M -4
  relative binding vs DMSO: 0.09481
HMG20B; [1]
  relative binding vs DMSO: 0
HMG20B; iL, A549 lysate, log10 M -5
  relative binding vs DMSO: 0
HMG20B; [2]
  relative binding vs DMSO: 0
HMG20B; iL, A549 lysate, log10 M -6
  relative binding vs DMSO: 0.5309
HMG20B; [3]
  relative binding vs DMSO: 1.1771
HMG20B; [4]
  relative binding vs DMSO: 1.54
HMG20B; iL, A549 lysate, log10 M -8
  relative binding vs DMSO: 1.531
HMG20B; [5]
  relative binding vs DMSO: 0.9986
HMG20B; [6]
  relative binding vs DMSO: 0.2338
HMG20B; iQ, SW620 lysate, log10 M -4
  relative binding vs DMSO: 0.0385
HMG20B; [7]
  relative binding vs DMSO: 0.4714
HMG20B; iQ, SW620 lysate, log10 M -5
  relative binding vs DMSO: 0.5482
HMG20B; [8]
  relative binding vs DMSO: 0.8626
HMG20B; iQ, SW620 lysate, log10 M -6
  relative binding vs DMSO: 0.8649
HMG20B; [9]
  relative binding vs DMSO: 1.158
HMG20B; iQ, SW620 lysate, log10 M -7
  relative binding vs DMSO: 1.067
GSE1; iL, A549 lysate, log10 M -4
  relative binding vs DMSO: 0.002926
GSE1; [1]
  relative binding vs DMSO: 0.03688
GSE1; iL, A549 lysate, log10 M -5
  relative binding vs DMSO: 0.08918
GSE1; [2]
  relative binding vs DMSO: 0.4136
GSE1; iL, A549 lysate, log10 M -6
  relative binding vs DMSO: 0.8054
GSE1; [3]
  relative binding vs DMSO: 1.293
GSE1; [4]
  relative binding vs DMSO: 1.282
GSE1; iL, A549 lysate, log10 M -8
  relative binding vs DMSO: 1.353
GSE1; [5]
  relative binding vs DMSO: 1.278
GSE1; [10]
  relative binding vs DMSO: 0
GSE1; iL, SW620 lysate, log10 M -4
  relative binding vs DMSO: 0
GSE1; [11]
  relative binding vs DMSO: 0
GSE1; iL, SW620 lysate, log10 M -5
  relative binding vs DMSO: 0.09089
GSE1; [12]
  relative binding vs DMSO: 0.3606
GSE1; iL, SW620 lysate, log10 M -6
  relative binding vs DMSO: 1.287
GSE1; [13]
  relative binding vs DMSO: 0.7924
GSE1; iL, SW620 lysate, log10 M -7
  relative binding vs DMSO: 1.217
GSE1; [6]
  relative binding vs DMSO: 0.1048
GSE1; iQ, SW620 lysate, log10 M -4
  relative binding vs DMSO: 0.1152
GSE1; [7]
  relative binding vs DMSO: 0.3197
GSE1; iQ, SW620 lysate, log10 M -5
  relative binding vs DMSO: 0.4493
GSE1; [8]
  relative binding vs DMSO: 0.5952
GSE1; iQ, SW620 lysate, log10 M -6
  relative binding vs DMSO: 0.7905
GSE1; [9]
  relative binding vs DMSO: 0.8177
GSE1; iQ, SW620 lysate, log10 M -7
  relative binding vs DMSO: 0.7924
